Results taken from ChEMBL document CHEMBL3046926, “Molecular properties prediction, synthesis, and diuretic activity of phenoxy acetic acid bearing pyrazolines” (2013).

Experiments:
Rattus norvegicus [1] = test: Induction of diuresis in Rattus norvegicus albino (rat) assessed as normal saline intake at 20 mg/kg, po measured at 5-18 hr after drug administration by standard Lipschitz method (reference value: 2.50 +/-0.036 ml); assay type: functional
Rattus norvegicus [2] = test: Induction of diuresis in Rattus norvegicus albino (rat) assessed as urinary Na+ excretion at 20 mg/kg, po measured at 5-18 hr after drug administration by standard Lipschitz method (reference value: 0.65+/-0.006 mEq/L); assay type: functional, Urine
Rattus norvegicus [3] = test: Induction of diuresis in Rattus norvegicus albino (rat) assessed as urinary excretion at 20 mg/kg, po measured at 0-5 hr after drug administration by standard Lipschitz method (reference value: 98.40%); assay type: functional, Urine
Rattus norvegicus [4] = test: Induction of diuresis in Rattus norvegicus albino (rat) assessed as urinary excretion at 20 mg/kg, po measured at 5-18 hr after drug administration by standard Lipschitz method (reference value: 50.4%); assay type: functional, Urine
Rattus norvegicus [5] = test: Induction of diuresis in Rattus norvegicus albino (rat) assessed as total urinary output at 20 mg/kg, po measured at 0-5 hr after drug administration by standard Lipschitz method (reference value: 2.46 +/-0.125 ml); assay type: functional, Urine
Rattus norvegicus [6] = test: Induction of diuresis action in Rattus norvegicus albino (rat) assessed as urinary excretion at 20 mg/kg, po measured at 0-5 hr after drug administration by standard Lipschitz method against untreated control (reference value: 1 no unit); assay type: functional, Urine
Rattus norvegicus [7] = test: Induction of diuresis in Rattus norvegicus albino (rat) assessed as urinary K+ excretion at 20 mg/kg, po measured at 5-18 hr after drug administration by standard Lipschitz method (reference value: 0.22 +/-0.004 mEq/L); assay type: functional, Urine
Rattus norvegicus [8] = test: Induction of diuresis in Rattus norvegicus albino (rat) assessed as urinary K+ excretion at 20 mg/kg, po measured at 0-5 hr after drug administration by standard Lipschitz method (reference value: 0.46 +/-0.006 mEq/L); assay type: functional, Urine
Rattus norvegicus [9] = test: Induction of diuresis in Rattus norvegicus albino (rat) assessed as urinary Cl- excretion at 20 mg/kg, po measured at 5-18 hr after drug administration by standard Lipschitz method (reference value: 0.38 +/-0.011 mEq/L); assay type: functional, Urine
Rattus norvegicus [10] = test: Induction of diuresis in Rattus norvegicus albino (rat) assessed as normal saline intake at 20 mg/kg, po measured at 0-5 hr after drug administration by standard Lipschitz method (reference value: 2.50 +/-0.036 ml); assay type: functional
Rattus norvegicus [11] = test: Induction of diuresis in Rattus norvegicus albino (rat) assessed as urinary Cl- excretion at 20 mg/kg, po measured at 0-5 hr after drug administration by standard Lipschitz method (reference value: 0.46 +/-0.005 mEq/L); assay type: functional, Urine
Rattus norvegicus [12] = test: Induction of diuresis in Rattus norvegicus albino (rat) assessed as total urinary output at 20 mg/kg, po measured at 5-18 hr after drug administration by standard Lipschitz method (reference value: 1.26 +/-0.049 ml); assay type: functional, Urine
Rattus norvegicus [13] = test: Induction of diuresis action in Rattus norvegicus albino (rat) assessed as urinary excretion at 20 mg/kg, po measured at 5-18 hr after drug administration by standard Lipschitz method against untreated control (reference value: 1 no unit); assay type: functional, Urine
Rattus norvegicus [14] = test: Induction of diuresis activity in Rattus norvegicus albino (rat) assessed as urinary excretion at 20 mg/kg, po measured at 5-18 hr after drug administration by standard Lipschitz method against frusemide-treated control (reference value: 0.2 no unit); assay type: functional, Urine
Rattus norvegicus [15] = test: Induction of diuresis in Rattus norvegicus albino (rat) assessed as urinary Na+ excretion at 20 mg/kg, po measured at 0-5 hr after drug administration by standard Lipschitz method (reference value: 0.90 +/-0.003 mEq/L); assay type: functional, Urine
Rattus norvegicus [16] = test: Induction of diuresis activity in Rattus norvegicus albino (rat) assessed as urinary excretion at 20 mg/kg, po measured at 0-5 hr after drug administration by standard Lipschitz method against frusemide-treated control (reference value: 0.5 no unit); assay type: functional, Urine

SMILES | Activity (Rattus norvegicus [1]) [mL] | Activity (Rattus norvegicus [2]) [mEq/L] | Activity (Rattus norvegicus [3]) [%] | Activity (Rattus norvegicus [4]) [%] | Activity (Rattus norvegicus [5]) [mL] | Ratio (Rattus norvegicus [6]) | Activity (Rattus norvegicus [7]) [mEq/L] | Activity (Rattus norvegicus [8]) [mEq/L] | Activity (Rattus norvegicus [9]) [mEq/L] | Activity (Rattus norvegicus [10]) [mL] | Activity (Rattus norvegicus [11]) [mEq/L] | Activity (Rattus norvegicus [12]) [mL] | Ratio (Rattus norvegicus [13]) | Ratio (Rattus norvegicus [14]) | Activity (Rattus norvegicus [15]) [mEq/L] | Ratio (Rattus norvegicus [16])
COc1ccc(C2=NN(C(=O)c3ccc(Cl)cc3)C(c3ccc(OCC(=O)O)c(OC)c3)C2)cc1 (stereo unspecified) | 2.85 | 0.11 | 42.45 | 8.07 | 1.21 | 0.4 | 0.068 | 0.36 | 0.06 | 2.85 | 0.36 | 0.23 | 0.16 | 0.03 | 0.76 | 0.2
COc1ccc(C2=NN(C(=O)COc3ccccc3)C(c3ccc(OCC(=O)O)c(OC)c3)C2)cc1 (stereo unspecified) | 2.84 | 2.62 | 180.63 | 190.49 | 5.13 | 1.8 | 1.35 | 0.54 | 1.38 | 2.84 | 0.96 | 5.41 | 3.8 | 0.76 | 1.92 | 0.91
COc1cc(C2CC(c3ccc(O)cc3O)=NN2C(=O)COc2ccccc2)ccc1OCC(=O)O (stereo unspecified) | 2.74 | 3.66 | 150 | 279.19 | 4.11 | 1.5 | 2.12 | 0.55 | 1.69 | 2.74 | 0.66 | 7.65 | 5.58 | 1.12 | 1.92 | 0.76
COc1cc(C2CC(c3ccc(Cl)cc3)=NN2C(=O)c2ccc(C)cc2)ccc1OCC(=O)O (stereo unspecified) | 2.61 | 4.31 | 223.37 | 466.66 | 5.83 | 2.2 | 2.66 | 0.81 | 2.69 | 2.61 | 0.76 | 12.18 | 9.32 | 1.88 | 1.56 | 1.11
COc1cc(C2CC(c3ccc(Cl)cc3)=NN2C(=O)COc2ccccc2)ccc1OCC(=O)O (stereo unspecified) | 2.94 | 3.82 | 247.61 | 345.91 | 7.28 | 2.5 | 1.96 | 1.74 | 1.77 | 2.94 | 1.66 | 10.17 | 6.92 | 1.39 | 3.26 | 1.26
COc1cc(C2CC(c3ccc(Cl)cc3)=NN2C(=O)Cc2ccccc2)ccc1OCC(=O)O (stereo unspecified) | 2.84 | 2.86 | 156.69 | 219.36 | 4.45 | 1.5 | 1.65 | 0.74 | 1.96 | 2.84 | 0.67 | 6.23 | 4.38 | 0.88 | 1.26 | 0.76
